Test results: PMC11344821 (Scientific Reports, 2024)
Values after ≈ are worked out from the molar mass of the structure shown.

Tests used:
[1] = Particle size analysis by laser diffraction; settings: for Volume mean diameter (VMD) / Particle size D10 / Particle size D50 / Particle size D90 / Particle size D99: laser diffraction, dry dispersion 3 bar, n = 3
Method: Laser diffraction was employed to measure particle size using a Sympatec HELOS/BR particle size analyser equipped with a RODOS dry dispersing system with VIBRI/I feeder (Clausthat-Zellerfield, Germany). Approximately 0.5g of sample was placed on to the VIBRI/L feeder tray and dispersed through a RODOS disperser with 3 bars of pressure. The volume mean diameter (VMD) of each sample was detected on the HELOS/BR set at a measuring range of 0–175 µm. All powders were measured in triplicate (n = 3), and the software calculate the 10% (D10), median (D50), 90% (D90) particle sizes and the volume mean diameter (VMD).
Milled samples were prepared using a Fritsch Pulverisette 7 planetary ball mill (Idar-Oberstein, Germany). Powders were accurately weighed according to the BPR. The samples were transferred into agate vials (45 cm^3 Volume) along with 8 agate balls (10mm diameter). The vials were then sealed with a plastic ring to prevent atmospheric contamination.

[2] = cited from earlier work
[3] = system: Staphylococcus aureus NCTC 10788; assay: Minimum lethal concentration (MLC), sub-culture on TSA plates; type: cell-based; settings: S. aureus NCTC 10788; tubes with no turbidity plated on TSA, overnight 37 °C; lowest concentration with no colony formation; listed as Control
Method: Overnight cultures of S. aureus were grown by inoculating a bacterial colony in 10 mL sterile TSB, incubated overnight at 37 °C in a shaking incubator. The overnight culture (1 × 10^9 bacterial cells/mL) was 100 folds diluted to achieve a concentration of 1 × 10^7 bacterial cells/mL.
10 sterile tubes were labelled from 1 to 10, followed by aseptic transfer of 5 mL of sterile TSB into each tube. […] 5 mL solution from tube 1 was then aseptically added to 5 mL TSB in tube 2, and thoroughly mixed and vortexed. This process was repeated for tubes 3–8. Tubes 9 and 10 were used as positive and negative controls, respectively. Once the process of dilution was completed, 100 µL from the 100 folds diluted S. aureus overnight culture was aseptically transferred into tunes 1–9, and incubated at 37 °C in a static incubator for 24 h. […] MICs were taken as the lowest concentrations with no turbidity (no visible bacterial growth).
Following this, the contents from the tubes with no turbidity were inoculated on Tryptic Soy Agar (TSA) plates, and incubated overnight at 37 °C in a static incubator.

Row | Structure (SMILES) | Volume mean diameter (VMD) [1] [µm] | Drug eliminated primarily through the renal route [2] | Oral bioavailability (absorbed orally) ([2]; oral route) | MLC [3] [µg/mL] | Particle size D10 [1] [μm] | Particle size D50 [1] [μm] | Particle size D90 [1] [μm] | Particle size D99 [1] [μm] | Particle size after ball milling relative to original size pre-ball mill ([1]; 15 min, 400 rpm, ball to powder ratio 8) [%] | Change in particle size in time-trial stability study over 28 days ([1]; day 0, 1, 3, 7, 14, 28, ANOVA, P > 0.05)
1 | CN[C@H](CC(C)C)C(=O)N[C@H]1C(=O)N[C@@H](CC(N)=O)C(=O)N[C@H]2C(=O)N[C@H]3C(=O)N[C@H](C(=O)N[C@H](C(=O)O)c4cc(O)cc(O)c4-c4cc3ccc4O)[C@H](O)c3ccc(c(Cl)c3)Oc3cc2cc(c3O[C@@H]2O[C@H](CO)[C@@H](O)[C@H](O)[C@H]2O[C@H]2C[C@](C)(N)[C@H](O)[C@H](C)O2)Oc2ccc(cc2Cl)[C@H]1O [vancomycin] | 51.64 | 80–90% | less than 10% | 6.25 (≈ 4.31 µM) | – | – | – | – | – | –
2 | N[C@@H](CCC(=O)O)C(=O)O [Formulation G3, L-glutamic acid] | 4.75 | – | – | – | 0.64 | 3.08 | 11.63 | 17.01 | – | –
3 | N[C@@H](CCC(=O)O)C(=O)O [Formulation G0, L-glutamic acid] | 25.45 | – | – | – | 6.97 | 22.56 | 48.37 | 70.49 | – | –
4 | N[C@@H](CCC(=O)O)C(=O)O [Formulation G1, L-glutamic acid] | 9.67 | – | – | – | 0.99 | 7.86 | 21.15 | 33.58 | – | –
5 | N[C@@H](CCC(=O)O)C(=O)O [Formulation G2, L-glutamic acid] | 2.35 | – | – | – | 0.54 | 1.62 | 5.46 | 8.31 | 4 | no significant change in size
